Here are results for one compound from patent US20220047530A1, “USE OF HORDENINE IN PREPARING DRUG FOR TREATING HYPOPHYSOMA” (Wuhan Third Hospital, priority 2019, published 2022).

For one data set, the system named is TLR4/NF-κB/MAPK pathway. The experiment in a line: Western blot of pituitary protein expression in rats with prolactinoma and adrenocorticotrophic hormone adenoma. It counts as in vivo, F344 rats (Rattus norvegicus). Particulars: once a day for 30 days by gavage; vs model group. From the text:
70 rats of the prolactinoma and adrenocorticotrophic hormone adenoma model as established in Step 1.1 “Establishment of Rattus norvegicus pituitary tumor model” and normal rats of the control group are used as samples.
The 70 F344 rats are randomly divided into the normal group, operation group, model group, positive drug group (bromocriptine positive drug group), high-dose hordenine group, medium-dose hordenine group, and low-dose hordenine group, […]. Except rats in the normal group and the operation group, rats in the other groups are all made into rats with prolactinoma and adrenocorticotrophic hormone adenoma.
Rats in the positive drug group are given an aqueous bromocriptine solution by gavage at a dose of 0.45 mg/kg. Rats in the high-, medium- and low-dose groups of an aqueous solution of hordenine are given an aqueous solution of hordenine by oral gavage at a dose of 40 mg/kg, 20 mg/kg, and 10 mg/kg, respectively. Rats in the normal group and the model group are given the same dose of distilled water. The administration is performed once a day for 30 days, and during this period of time, the rats are weighed every five days and the changes in body weight are recorded.
Tissue extraction: The animals in each group are anesthetized, and the pituitary glands are removed as described in Section 2.2.2 of Part I, which are kept at −80° C. for later use.
The protein expression of TLR4/NF-κB/MAPK pathway in rats in the treatment groups after the administration of hordenine is determined by Western blotting detection. The effect of hordenine on the expression of various proteins in the pituitary glands of rats with prolactinoma and adrenocorticotrophic hormone adenoma as determined by Western blot detection on is shown in FIG. 16.
For orientation: In western blotting, separated proteins are transferred to a membrane and probed.

The test system of a further data set is SD rats. The data set is described as follows: Toxicity prediction (pre-experiment). It counts as in vivo. The conditions noted are these: gavage 0.07 g/kg twice a day. From the text:
5 SPF-grade SD rats are randomly selected for toxicity prediction. Another 30 SPF-grade SD rats are randomly selected, wherein half are males, and half are females. After the purchase of the animals, the animals are adaptively fed for one week. The rats are fasted at the night before the experiment (without stopping the provision of water). During the experiment, the animals are randomly divided into 3 groups, which are the control group, the low-dose hordenine treatment group (0.035 g/kg), and the high-dose hordenine treatment group (0.07 g/kg).
7 mg/ml of hordenine solution (the theoretical maximum solubility of hordenine is 7 mg/ml) is used for pre-experiment to observe the survival of rats. 5 SPF-grade SD rats are randomly selected, and hordenine is administered by gavage at the maximum dose of 0.07 g/kg, twice a day, with an interval of no less than 4 hours, 1 day of administration, and 7 days of observation. The poisoning, death, and amounts of food and water consumed by the rats are daily observed and recorded. For rats that die during the experiment, they are immediately dissected to find the cause of death. After the completion of the experiment, all dying rats will be dissected to remove the heart, liver, spleen, lung and kidney for visual observation, and pathological sections of each organ are made to roughly determine the target organ of toxicity.

“Also recorded” adds a separate entry of the source.

With `CN(C)CCc1ccc(O)cc1` [hordenine, 4-(2-dimethylaminoethyl)phenol], in the data set on TLR4/NF-κB/MAPK pathway, the “expression of ATCH in pituitary glands (Western blot)” value is recorded as “significantly reduce”, the “expression of MAPK12 in pituitary glands (Western blot)” value is given as “significantly reduce; also recorded: significantly down-regulated”, the “expression of NF-kB protein in pituitary glands” value is given as “significantly down-regulated” and the “expression of PRL in pituitary glands (Western blot)” value is given as “significantly reduce”. In the data set on TLR4/NF-κB/MAPK pathway, the “expression of STAT3 protein in pituitary glands” value is “significantly down-regulated”, the “expression of TLR4 in pituitary glands (Western blot)” value is listed as “significantly reduce; also recorded: significantly down-regulated”, the “expression of TNF-α in pituitary glands (Western blot)” value is “significantly reduce” and the “expression of caspase-1 protein in pituitary glands” value is on record as “significantly down-regulated”. Also, the “time to recovery of reduced activity after treatment” value in the data set with SD rats (1 day) is recorded as “about 2 hours”. In addition, the “death of rats within 7 days” value in the data set on SD rats (1 day of administration, 7 days of observation) is on record as “no rats die”. The general clinical signs entry with SD rats (1 day, 7 days of observation) was “no other adverse reactions”.
